Reference: publication PMC2033785, “High-affinity binding sites for gastrin-releasing peptide on human colorectal cancer tissue but not uninvolved mucosa” (British Journal of Cancer, 1995)
One block for each substance: values may come before it. No end group written: not given here.

Columns and labels:
[1] = test system: bombesin binding sites on human colorectal cancer tissue (GRP-preferring subtype); assay: Radioligand displacement binding on human colorectal cancer membranes; settings: for Radioligand displacement achieved over the concentration range: [125I]Tyr4-BBS; for Radioligand displacement achieved over the concentration range / Relative affinity for the binding site (GRP, BBS >> NMB): five binding site-positive tumours; for Relative affinity for the binding site (GRP, BBS >> NMB): displacement of [125I]Tyr4-bombesin
[2] = test system: mouse colon cancer cell line MC26; design: method as in Narayan et al., 1990; settings: [3H]thymidine incorporation and MTT assays; ref Narayan et al., 1990; cited from earlier work
human colorectal cancers = test system: human colorectal cancers; design: method as in Radulovic et al., 1992; settings: ref Radulovic et al., 1992; cited from earlier work
matched mucosa = test system: matched mucosa; design: method as in Radulovic et al., 1992; settings: ref Radulovic et al., 1992; cited from earlier work
[3] = competitor 1 x 10-11 to 1 x 10^-6 M

Relative affinity for the binding site (GRP, BBS >> NMB) [1]: GRP, BBS >> NMB
Substance: bombesin [BBS]
Radioligand displacement achieved over the concentration range [1, 3]: Full radioligand displacement was achieved
Effect on growth [2]: stimulated growth
Percentage of human colorectal cancers expressing bombesin binding sites (human colorectal cancers): 40%
Matched mucosa binding site positive (matched mucosa): none of the matched mucosa were binding site positive

Substance: gastrin-releasing peptide (VPLPAGGGTVLTKMYPRGNHWAVGHLM; ends and bridges not checked; UniProt P07492 24-50, looked up) [GRP, mammalian bombesin-like peptide (Bachem)]
Radioligand displacement achieved over the concentration range [1, 3]: Full radioligand displacement was achieved
Relative affinity for the binding site (GRP, BBS >> NMB) [1]: GRP, BBS >> NMB

Substance: neuromedin B [NMB]
Relative affinity for the binding site (GRP, BBS >> NMB) [1]: GRP, BBS >> NMB
IC50 for displacement of [125I]Tyr4-BBS ([1]; membrane preparations, approximately 200 pM radioligand, competitor 1 x 10-11 to 1 x 10^-6 M, six tubes per point, mean (± s.e.m.) of the five binding site-positive cancers): > lOOO
50% displacement of specific binding: number of tumours in which achieved ([1]; of the five binding site-positive tumours, competitor 1 x 10-11 to 1 x 10^-6 M): only achieved in two of the five binding site-positive tumours
